Assay results from patent US8298781B2, “Compositions and methods for characterizing and regulating olfactory sensation” (Duke University, priority 2007, dated 2012).

Columns and labels:
Format in all cases: in vivo
human subjects [1] = experiment: Human olfactory psychophysics: valence rating by OR7D4 genotype; settings: 7-point scale, two concentrations pooled
Method: (§1) Human olfactory psychophysics. All human subjects gave informed consent to participate in this study and were tested in a well-ventilated room. Normal human subjects (n=412; 218 female, 194 male; median age 34, age range 19-75) were pre-screened to exclude pregnant women and those with medical conditions causing general impairment of the sense of smell. All subjects completed two replicates of the test separated by at least 4 days. Odors were presented in amber vials as previously described (see, e.g., Keller, A., et al., Nat Neurosci 7, 337-338 (2004); herein incorporated by reference in its entirety) using bar-coded symbols to ensure that subjects were blind to the identity of all odors. The intensity and valence of 66 odors at two concentrations (“high” and “low”) and two solvents was rated using a 7-point scale. Thresholds were calculated using the single staircase method with seven reversals (see, e.g., Doty, R. L., et al., Chem Senses 20, 645-656 (1995); Doty, R. L. & Laing, D. G. in Handbook of Olfaction and Gustation (ed. Doty, R. L.) pp. 203-228 (Marcel Dekker, Inc., New York, 2003); each of which are herein incorporated by reference in their entireties). Threshold tests included both steroids as binary dilutions from […] (binary dilution 6) to 1: 134,217,728 (binary dilution 27). Subjects who could not reliably distinguish a 1:64 dilution of androstenone and androstadienone from solvent were operationally defined as anosmic to these odorous steroids, although it could not be excluded that these subjects could detect higher concentrations of these steroids (see, e.g., Bremner, E. A., et al., Chem Senses 28, 423-432 (2003); herein incorporated by reference in its entirety). Odor profiling used the method established by Dravnieks, et al. (see, e.g., Dravnieks, A., et al., Science 218, 799-801 (1982); herein incorporated by reference in its entirety).
(§2) Stimuli for olfactory psychophysics. All odors were presented as one ml of an odor dilution in either propylene glycol or paraffin oil in 20 ml amber glass vials. All of these compounds were used in the intensity and valence rating portion of the smell test.
(§3) Olfactory ratings. The intensity and valence of 66 odors were rated at two different concentrations (high and low) and the intensity and valence of the two solvents (paraffin oil and propylene glycol) was rated three times. Prior to these ratings, six stimuli that represented the spectrum of intensity and valence of the stimuli used in the study were presented to allow the subjects to calibrate the usage of the scale. The subjects were unaware that the six first stimuli served that purpose. After the rating of the 66 odors at two concentrations and the rating of the solvents, 15 stimuli that were presented earlier in the experiment were repeated to test for the effect of adaptation and olfactory fatigue on the ratings. The subjects were not aware that the last 15 stimuli served this purpose. These 15 stimuli and the six first stimuli were not included in the analysis presented here. […] The 15 control stimuli and their concentrations were as follows:
(§4) In addition there was a button on the screen labeled “I can't smell anything” and a button labeled “Don't Know”. If the “Don't Know” button was pressed, no rating was recorded. If the “I can't smell anything” button was pressed, a 0 was recorded for the intensity rating and no rating was recorded for the valence rating. The other ratings were transformed according to the following scheme:
(§5) • Extremely Weak=1 • Very Weak=2 • Slightly Weak=3 • Neither Weak nor Strong=4 • Slightly Strong=5 • Very Strong=6 • Extremely Strong=7 Valence Rating • Extremely Unpleasant=1 • Very Unpleasant=2 • Slightly Unpleasant=3 • Neither Unpleasant nor Pleasant=4 • Slightly Pleasant=5 • Very Pleasant=6 • Extremely Pleasant=7
(§6) Averages for the ratings of the different genotypes were calculated. […]

human subjects [2] = experiment: Human olfactory psychophysics: odor profiling with 146 descriptors; settings: vanillin 1/200
Method: Human olfactory psychophysics. All human subjects gave informed consent to participate in this study and were tested in a well-ventilated room. Normal human subjects (n=412; 218 female, 194 male; median age 34, age range 19-75) were pre-screened to exclude pregnant women and those with medical conditions causing general impairment of the sense of smell. All subjects completed two replicates of the test separated by at least 4 days. Odors were presented in amber vials as previously described (see, e.g., Keller, A., et al., Nat Neurosci 7, 337-338 (2004); herein incorporated by reference in its entirety) using bar-coded symbols to ensure that subjects were blind to the identity of all odors. The intensity and valence of 66 odors at two concentrations (“high” and “low”) and two solvents was rated using a 7-point scale. Thresholds were calculated using the single staircase method with seven reversals (see, e.g., Doty, R. L., et al., Chem Senses 20, 645-656 (1995); Doty, R. L. & Laing, D. G. in Handbook of Olfaction and Gustation (ed. Doty, R. L.) pp. 203-228 (Marcel Dekker, Inc., New York, 2003); each of which are herein incorporated by reference in their entireties). Threshold tests included both steroids as binary dilutions from […] (binary dilution 6) to 1: 134,217,728 (binary dilution 27). […]
Assigning descriptors to odors. Subjects assessed the quality of six odors using an odor profiling method that has shown to produce stable profiles of odorants. […] Odor profiling typically took five minutes per odorant and was performed as a computer-controlled selftest in which the subject's responses were directly recorded. […] The descriptors used to describe the other four odors (vanillin, pentadecalactone, androstenone, and propylene glycol) were evaluated. […]

human subjects [3] = experiment: Human olfactory psychophysics: intensity rating by OR7D4 genotype; settings: 7-point scale, two concentrations pooled; N=100 RT/WM, N=255 RT/RT
Method: as §1, §2, §3, §4, §5, §6

SMILES | valence rating, OR7D4 RT/WM vs RT/RT subjects (human subjects [1]) | use of two descriptors, OR7D4 RT/WM vs RT/RT subjects (human subjects [2]) | intensity rating, OR7D4 RT/WM vs RT/RT subjects (human subjects [3])
CCCCCCCCOC(C)=O [octyl acetate] | less pronounced—but statistically significant—difference | – | –
COc1cc(C=O)ccc1O [vanillin] | less pronounced—but statistically significant—difference | comparable increase | –
CC1COCc2cc3c(cc21)C(C)(C)C(C)C3(C)C (centres unmarked) [galaxolide] | – | – | not affected
O=C1CCCCCCCCCCCCCCO1 [pentadecalactone] | – | – | not affected
